What was measured:
human GLP-1R receptor = biological target: T1, human GLP-1R receptor (Homo sapiens, UniProt P43220, L260F); assay: CHOK1 GLP-1R cAMP Assay; type: cell-based; details: CHO-K1 cell line stably expressing human GLP-1R; HTRF cAMP detection
T1 construct: expressed in transfected cells; host or cells: CHO-K1 (ATCC CCL-61)
Protocol: A cell line stably expressing the human GLP-1R receptor (NM_002062.5, including the naturally-occurring variant Leu260Phe) in a CHO-K1 (ATCC® CCL-61™) was used for assay.
GLP-1 Receptor mediated agonist activity was determined in a cell based assay measuring cAMP levels in cells using Homogeneous Time-Resolved Fluorescence (HTRF) cAMP detection kit (CisBio catalog #62AM4PEC, cAMP Gs Dynamic range kit). The cAMP detection method is based on a competitive immunoassay, in which cAMP produced by the cells and cAMP labeled with the dye d2 compete for binding to a Europium-Cryptate-labeled anti-cAMP antibody. The specific HTRF signal is inversely proportional to the concentration of cAMP.
Compounds were added to individual well in 384 well-assay plates (Greiner #784076) using an Echo (LabCyte) dispenser from 10 mM stocks. Varying concentration of compounds were added to wells, and dimethyl sulfoxide was used to normalize each well to a volume of 100 nanoliter. A dose response curve of GLP1(7-36)NH2 (Bachem H-6795) was included in each run. 5 μL of cAMP concentration response standards are applied in specified wells in the assay plates.
Cryo-preserved cells are thawed and resuspended in assay buffer pre-heated to 37° C. (20 mM 2-[4-(2-hydroxyethyl)piperazin-1-yl]ethanesulfonic acid (HEPES) pH 7.4, lx Hank's Balanced Salt Solution (HBSS, Life Technologies #14065) supplemented with 0.1% (w/v) bovine serum albumin (Sigma, A-7030)). Cells were centrifuged at 250*g for 5 min at room temperature, and resuspend in room tempered assay buffer to a final density of 0.16*10^6 cell/mL, to deliver 800 cells/well. 5 μL of assay buffer with 1 mM 3-isobutyl-1-methylxanthin (IBMX; Sigma cat I-7018) was dispensed per well in assay plates using a multidrop combi (Thermo Scientific) subsequently 5 μL of cell suspension was distributed to relevant wells in the assay using a multidrop dispenser. Assay plates were incubated 20 min at room temperature.
Detection reagents, Europium-Cryptate-labeled anti-cAMP antibody and cAMP labeled with the dye d2, are diluted in lysis buffer, provided by the manufacturer. 5 μL of each detection reagent is supplemented to each assay well using a multidrop dispenser. Assay plates are incubated in the dark for at least one hour. The HTRF signal is measured using the HTRF module (excitation: 337 nm, emission A: 665 nm and emission B: 620 nm) in Pherastar FSX (BMG Labtech).
Raw data were converted to pM cAMP using the cAMP standard curve included in each run. Converted data were further analyzed in Genedata Screener (Genedata) and EC50 determinations were made from agonist dose-response curves analyzed with a curve fitting program using a 4-parameter logistic dose response equation (Equation y=A+((B−A)/1+((C/x)^D))) where A is no stimulation, B is full stimulation, C is the EC50 and D is the Hill slope). The percent effect was determined relative to a saturating concentration of a full GLP-1R agonist (GLP1(7-36)NH2 has 100% effect in this assay setup).

[1] = biological target: T2, endogenous human glucagon-like peptide 1 receptor (GLP-1R) (Homo sapiens, UniProt P43220); assay: EndoC cAMP Accumulation Assay; type: cell-based; details: EndoC-βH1 human pancreatic β cell line; HTRF cAMP assay
T2 construct: endogenous human glucagon-like peptide 1 receptor (GLP-1R) in a pancreatic insulinoma cell line; host or cells: EndoC-βH1 human pancreatic β cell line
Text: EndoC cAMP Accumulation Assay
A HTRF (Homogeneous Time-Resolved Fluorescence) cAMP assay (cAMP Gs dynamic kit; CisoBio Cat #62AM4PEJ) was used to identify agonists of the endogenous human glucagon-like peptide 1 receptor (GLP-1R) in a pancreatic insulinoma cell line (EndoC-βH1). […] EndoC-βH1 cells have detectable GLP-1R mRNA as detected by qPCR^1. […] The EndoC-βH1 cell line is a valid model of human beta cells and applicable for screenings to identify novel drug target candidates (Mol. Metab., 2018, 8, 144-157). CisBio HTRF cAMP kits are based on a competitive immunoassay using cryptate-labelled anti-cAMP antibody and d2-labeled cAMP. The detection kit is intended for the direct quantitative determination of cAMP. The specific signal (i.e. energy transfer) is inversely proportional to the concentration of cAMP in the standard or sample. Test compounds (10 mM in DMSO) were diluted into assay buffer (HBSS (Sigma #H8264) supplemented with 25 mM HEPES (Gibco #15630, pH 7.4), 0.1% BSA (Sigma #A3059) and 0.5 mM IBMX (Sigma #I7018) included fresh on the day of the assay) into 96 well U-bottom plates (Greiner #650201). Diluted compounds were transferred to ECHO source PP plates (Labcyte #P-05525) and dose response curves were dispensed acoustically using ECHO 550 into black shallow-well u-bottom 384-well HTRF Assay Plates (Corning 4514).
Cryovials of EndoC-H1 (supplied at 1×10e^7 cells/vial) were used directly for screening. The cryovials and were removed from LN2 and thawed rapidly in a 37° C. water bath. The cells were resuspended in assay buffer and centrifuged at 300 g for 5 min. Cells were resuspended in assay buffer at the appropriate concentration, typically at 12e5 cells per mL (3000 cells per well, dependent on cell batch) and 2.5 μL diluted cells were added to all wells of destination plate by Multidrop combi reagent dispenser (Thermofisher). The plates were incubated at room temperature for 30 min. The assay was stopped by adding 2.5 μL anti-cAMP cryptate solution to all wells and 2.5 μL cAMP-d2 solution (both diluted 1:20 in lysis buffer) to columns 1-22 by Combi drop. A volume of 2.5 μL cAMP-d2 solution was added to wells E23 to P24 and 2.5 μL lysis buffer added to wells A23 to D24 by multichannel pipette. The plates were incubated at room temperature for 1 hr and read on an Envision plate reader using excitation wavelength of 320 nm and emission of 590 nm and 660 nm.
Raw data from Envision is converted to % DeltaF according to the manufacturer's instructions. Dose response curves are analysed via 4-Parameter Logistical Analysis and assay plate Z′ values obtained. Samples are graphed as percentage (%) activation plots compared to GIP (1-42, Bachem H-5645) with assay window defined by negative control as basal cell cAMP levels and positive control are defined by maximum GIP (82.5 nM) signal. GLP1 (7-36 amide, Bachem H-6795) dose response curve was included on all plates.

T1 sequence (P43220 24-463 L260F): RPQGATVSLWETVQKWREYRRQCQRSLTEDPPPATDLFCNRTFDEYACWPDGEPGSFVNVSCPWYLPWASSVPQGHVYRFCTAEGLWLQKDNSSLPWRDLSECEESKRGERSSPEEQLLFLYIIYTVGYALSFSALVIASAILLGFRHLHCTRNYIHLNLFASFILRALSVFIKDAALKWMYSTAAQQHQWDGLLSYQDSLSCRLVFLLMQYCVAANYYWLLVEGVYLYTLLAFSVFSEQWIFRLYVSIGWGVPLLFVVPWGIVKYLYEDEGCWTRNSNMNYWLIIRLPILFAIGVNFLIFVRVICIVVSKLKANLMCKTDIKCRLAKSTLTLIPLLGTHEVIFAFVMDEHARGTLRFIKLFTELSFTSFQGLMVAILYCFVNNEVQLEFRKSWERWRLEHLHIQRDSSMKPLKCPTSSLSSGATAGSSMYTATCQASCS
T2 sequence (P43220 24-463): as the sequence (P43220 24-463 L260F) above, with F237L counted along it

Row | SMILES | EC50 (human GLP-1R receptor) [nM] | EC50 [1] [nM]
1 | C[C@]1(c2ccc(Cl)cn2)Oc2cccc(N3CCN(Cc4nc5ccc(C(=O)O)cc5n4C[C@@H]4CCO4)[C@H]4COC[C@H]43)c2O1 (relative stereo) [Example 5a, 2-((4aR*,7aS*)-4-((R*)-2-(5-Chloropyridin-2-yl)-2-methylbenzo[d][1,3]dioxol-4-yl)hexahydrofuro[3,4-b]pyrazin-1(2H)-yl)methyl)-1-(((S)-oxetan-2-yl)methyl)-1H-benzo[d]imidazole-6-carboxylic acid] | 180 | 1300
2 | COc1cc(C(=O)O)cc2c1nc(CN1CCN(c3cccc4c3O[C@@](C)(c3ccc(Cl)cn3)O4)[C@@H]3COC[C@@H]31)n2C[C@@H]1CCO1 (single isomer, unassigned) [Example 1a, 2-(((4aR*,7aS*)-4-((R*)-2-(5-Chloropyridin-2-yl)-2-methylbenzo[d][1,3]dioxol-4-yl)hexahydrofuro[3,4-b]pyrazin-1(2H)-yl)methyl)-4-methoxy-1-(((S)-oxetan-2-yl)methyl)-1H-benzo[d]imidazole-6-carboxylic acid] | 140 | 210
3 | COc1cc(C(=O)O)cc2c1nc(CN1CCN(c3cccc4c3O[C@@](C)(c3ccc(Cl)cn3)O4)[C@@H]3COC[C@@H]31)n2C[C@@H]1CCCO1 (single isomer, unassigned) [Example 2b, 2-(((4aR*,7aS*)-4-((R*)-2-(5-Chloropyridin-2-yl)-2-methylbenzo[d][1,3]dioxol-4-yl)hexahydrofuro[3,4-b]pyrazin-1(2H)-yl)methyl)-4-methoxy-1-(((S)-tetrahydrofuran-2-yl)methyl)-1H-benzo[d]imidazole-6-carboxylic acid] | 110 | 86
4 | COc1cc(C(=O)O)cc2c1nc(CN1CCN(c3cccc4c3O[C@@](C)(c3ccc(Cl)cc3F)O4)[C@@H]3COC[C@@H]31)n2C[C@@H]1CCO1 (single isomer, unassigned) [Example 3b, 2-(((4aR*,7aS*)-4-((R*)-2-(4-Chloro-2-fluorophenyl)-2-methylbenzo[d][1,3]dioxol-4-yl)hexahydrofuro[3,4-b]pyrazin-1(2H)-yl)methyl)-4-methoxy-1-(((S)-oxetan-2-yl)methyl)-1H-benzo[d]imidazole-6-carboxylic acid] | 61 | 270

Continued by falling EC50 (human GLP-1R receptor), values first:

Row | EC50 (human GLP-1R receptor) [nM] | EC50 [1] [nM] | SMILES
5 | 730 | 340 | C[C@@]1(c2ccc(Cl)cc2F)Oc2cccc(N3CCN(Cc4nc5c(F)cc(C(=O)O)cc5n4Cc4cccnc4)[C@@H]4COC[C@@H]43)c2O1 (relative stereo) [Example 13c, rel-2-(((4aR,7aS)-4-((R)-2-(4-Chloro-2-fluorophenyl)-2-methylbenzo[d][1,3]dioxol-4-yl)hexahydrofuro[3,4-b]pyrazin-1(2H)-yl)methyl)-4-fluoro-1-(pyridin-3-ylmethyl)-1H-benzo[d]imidazole-6-carboxylic acid]
6 | 380 | – | C[C@]1(c2ccc(Cl)cc2F)Oc2cccc(N3CCN(Cc4nc5ccc(C(=O)O)cc5n4CCn4cccn4)[C@H]4COC[C@H]43)c2O1 (single isomer, unassigned) [Example 7b]
7 | 150 | 130 | COc1cc(C(=O)O)cc2c1nc(CN1CCN(c3cccc4c3O[C@@](C)(c3ccc(Cl)cc3F)O4)[C@@H]3COC[C@@H]31)n2C[C@@H]1CCO1 (single isomer, unassigned) [Example 3c, 2-(((4aR*,7aS*)-4-((R*)-2-(4-Chloro-2-fluorophenyl)-2-methylbenzo[d][1,3]dioxol-4-yl)hexahydrofuro[3,4-b]pyrazin-1(2H)-yl)methyl)-4-methoxy-1-(((S)-oxetan-2-yl)methyl)-1H-benzo[d]imidazole-6-carboxylic acid]
8 | 2 | 1.2 | COc1cc(C(=O)O)cc2c1nc(CN1CCN(c3cccc4c3OC(C)(c3ccc(Cl)cc3F)O4)[C@@H]3COC[C@@H]31)n2C[C@@H]1CCCO1 (relative stereo) [Example 28, 2-(((4aS,7aR)-4-((R*)-2-(4-Chloro-2-fluorophenyl)-2-methylbenzo[d][1,3]dioxol-4-yl)hexahydrofuro[3,4-b]pyrazin-1(2H)-yl)methyl)-4-methoxy-1-(((S)-tetrahydrofuran-2-yl)methyl)-1H-benzo[d]imidazole-6-carboxylic acid]
9 | 1.2 | 1.7 | COc1cc(C(=O)O)cc2c1nc(CN1CCN(c3cccc4c3O[C@@](C)(c3ccc(Cl)cc3F)O4)[C@@H]3COC[C@@H]31)n2C[C@@H]1CCO1 (single isomer, unassigned) [Example 3a, 2-(((4aR*,7aS*)-4-((R*)-2-(4-Chloro-2-fluorophenyl)-2-methylbenzo[d][1,3]dioxol-4-yl)hexahydrofuro[3,4-b]pyrazin-1(2H)-yl)methyl)-4-methoxy-1-(((S)-oxetan-2-yl)methyl)-1H-benzo[d]imidazole-6-carboxylic acid]
10 | 1.1 | 1.9 | C[C@@]1(c2ccc(Cl)cc2F)Oc2cccc(N3CCN(Cc4nc5c(Cl)cc(C(=O)O)cc5n4C[C@@H]4CCO4)[C@@H]4COC[C@@H]43)c2O1 (relative stereo) [Example 15a, 4-Chloro-2-(((4aR*,7aS*)-4-((R*)-2-(4-chloro-2-fluorophenyl)-2-methylbenzo[d][1,3]dioxol-4-yl)hexahydrofuro[3,4-b]pyrazin-1(2H)-yl)methyl)-1-(((S)-oxetan-2-yl)methyl)-1H-benzo[d]imidazole-6-carboxylic acid]
